These results are taken from US20120149724A1, “MODULATING ENDOGENOUS BETA-ENDORPHIN LEVELS” (THE GENERAL HOSPITAL CORPORATION, priority 2009, published 2012).

“Also recorded” adds a separate entry of the source.

The subject of one assay is C57BL/6 male mice. Kind of assay: analgesic thresholds (von Frey and hot plate assays) over a tail radiation or mock regimen. In kind it is in vivo. As for the experimental part:
Example 4 describes analgesic response changes in response to tail-only radiation exposure. To obtain the data shown in FIGS. 4A and 4B, 8-week old male mice were either exposed to a dose of 5 Gy/day gamma radiation or mock exposed for 6 weeks. Mechanical (FIG. 4A) and thermal (FIG. 4B) analgesic thresholds were measured twice per week over the course of the regimen, and for 2 weeks after the regimen. The threshold testing was performed in the morning before the radiation treatment or mock exposure. The mock exposed mice were either injected with saline 15 minutes before the testing, or with 10 mg/kg naloxone 15 minutes before the testing. The radiation treatment group was divided into 2 subgroups. The first group was given saline injections 15 minutes before the testing. The second group was given a 10 mg/kg naloxone injection 15 minutes before the testing. For all groups of mice, blood was drawn once per week for beta-endorphin measurement. Data for FIG. 4A was obtained from C57BL/6 male mice, and there were 10 mice per treatment group. Data for FIG. 4B was obtained from C57BL/6 male mice, and there were 10 mice per treatment group. An asterisk indicates p<0.05 by t-test. FIGS. 4A and 4B show both mechanical and thermal analgesic thresholds increase over the radiation regimen similarly to plasma beta-endorphin fluctuations (Figure C).
In this assay of mechanical nociceptive threshold, mice were placed on an elevated wire mesh grid, and the plantar surface of the left hind paw was poked with fibers calibrated to different pressures. Mice were each poked 10 times at each pressure at a rate of 1/second, starting with the lowest pressure and stopping at the pressure that elicits a positive response for a given mouse, thus indicating the mechanical nociceptive threshold for that mouse. A positive response was 2/10 responses of paw flinching, fluttering, or licking immediately following the poke. These experiments were performed in mice undergoing daily tail radiation or mock tail radiation as follows.
Prior to the start of the tail radiation regimen, mice were habituated over one week by spending 1 hour/day in individual wire mesh cages on the elevated wire mesh grid. In addition, prior to each measurement, mice spent 30 minutes on the wire mesh grid to habituate before measurements were taken. Two measurements of baseline thresholds were taken on two different days prior to the start of the radiation regimen. During the radiation regimen and for 2 weeks following the end of the regimen, mice were tested twice per week on two different, non-consecutive days. Mice receiving mock treatment and 1 subgroup of mice receiving tail radiation were injected with saline (ip) 15 minutes prior to testing. […]

For assay [1], the system named is tail-irradiated C57BL/6 mice. Kind of assay: Straub Tail scoring in tail-irradiated mice. It counts as in vivo. Particulars: 10 mg/kg ip after the 17th tail irradiation (5 Gy/day); rescored 20 minutes after injection. As for the experimental part:
To obtain the data shown in FIG. 3C, after the 17th irradiation dose, the mice were measured for Straub Tail scores and the irradiated mice were divided into two subgroups. The first subgroup was injected with 10 mg/kg naloxone ip. The second subgroup was injected with saline ip. Straub Tail scores were then rescored 20 minutes after the injection. FIG. 3C uses data obtained by Wild type female mice. […] The saline injection has no effect on the Straub Tail phenotype.
Mice undergoing tail radiation or mock treatment were assessed for Straub Tail according to a slightly modified method of Zarrindast, M. R., Ghadimi, M., Ramezani-Tehrani, B., and Sahebgharani, M. Effect of GABA Receptor Agonists or Antagonists on Morphine-induced Straub Tail in Mice. […] 2006; 116(8): 963-73, by which Straub tail is scored on a scale of 0-2 according to the angle of elevation of the tail from the horizontal plane (0=tail relaxed and no elevation; 1=tail is rigid and slightly elevation 1-10° from horizontal; 1.5=11-45 degree elevation with rigidity at the base of the tail; 2=46-90° elevation with rigidity at the base of the tail). For each measurement, each mouse is scored every 10 seconds for 1 minute, and the final score for each mouse at a given measurement point is the average of these 7 values. […] After the 17th irradiation, all mice were scored as described above immediately following tail radiation. […]

Take `C=CCN1CC[C@]23c4c5ccc(O)c4O[C@H]2C(=O)CC[C@@]3(O)[C@H]1C5` [naloxone]: the “sensitivity to mechanical and thermal stimuli” value in the assay on C57BL/6 male mice (mock-exposed mice, 10 mg/kg, compared to mock-exposed, saline-treated mice) was “increased sensitivity to mechanical and thermal stimuli”; in the assay on C57BL/6 male mice (tail-irradiated mice, 10 mg/kg 15 minutes before testing, as the radiation regimen progressed), “increased sensitivity to both mechanical and thermal stimuli”. Also, the “effect on radiation-induced changes in mechanical and thermal analgesic thresholds” value in the assay on C57BL/6 male mice (tail-irradiated mice 5 Gy/day for 6 weeks, 10 mg/kg 15 minutes before testing, 10 mg/kg) is reported as “prevented; also recorded: prevents changes in analgesic thresholds”. The “other withdrawal phenotypes (jumping, wet-dog shaking, teeth chattering, diarrhea)” value with C57BL/6 male mice (tail-irradiated mice, upon naloxone injection, 10 mg/kg) is given as “not observed acutely”. Further, in assay [1], the “effect on Straub Tail score” value is given as “abolished to near mock-treated levels; also recorded: reversed the Straub Tail, similar to mock-treated levels”.
